We go through four compounds from patent US11396517B1, “Exo-aza spiro inhibitors of menin-MLL interaction” (Janssen Pharmaceutica NV, priority 2017, dated 2022).

SMILES strings stand for the structures. Where only a bound is given, the exact number is not on record here.

Holding throughout (type): cell-based, human
Assay [1] concerns MOLM14. In words: Proliferation assay B (spheroid assay) MOLM14. As to conditions: MOLM14 cells, confluence at day 8, absolute IC50, read-out: (3b) Spheroid assay MOLM14 (IC50(μM)) Assay B. The procedure, abridged:
(§1)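 Leukemia cells grown as spheroids in ultra-low-attachment round-bottom wells with compound at 0.3% DMSO for 8 d at 37 °C. Confluence imaged at day 8 as spheroid size, normalized between DMSO and 1 μM staurosporine controls; absolute IC50 from sigmoidal fit with bounds fixed at 0 and 100%.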

Assay [2] has as its system MV-4-11. Description: Proliferation assay A (spheroid assay) MV-4-11. As to conditions: MV-4-11 cells, 8 d, AUC of confluence against time, absolute IC50, read-out: (3a) Spheroid assay MV-4-11 (IC50(μM)) Assay A. The procedure, abridged: (§2)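 Spheroid growth in ultra-low-attachment round-bottom wells (1,500 MV-4-11, 300 MOLM14 or 750 K562 cells), compound titration at 0.3% DMSO, 8 d at 37° C. Confluence imaged every 4 h; AUC from t=0 baseline expressed as % of DMSO control and fitted for absolute IC50.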

Assay [3] has as its system MOLM14. In words: Proliferation assay A (spheroid assay) MOLM14. As to conditions: Homo sapiens, MOLM-14, 192 h, MOLM14 cells, 8 d, AUC of confluence against time, absolute IC50; read-out: (3a) Spheroid assay MOLM14 (IC50(μM)) Assay A. The procedure, abridged: as §2
Assay [4] deals with MV-4-11. In words: Proliferation assay B (spheroid assay) MV-4-11. The settings on record: Homo sapiens, MV4-11, 192 h, MV-4-11 cells, confluence at day 8, absolute IC50; read-out: (3b) Spheroid assay MV-4--11 (IC50(μM)) Assay B. In short, it runs like this:
as §1

For `FC(F)(F)Cc1cc2c(N3CCC4(CC(Nc5ccc6cc[nH]c6c5)C4)C3)ncnc2s1` (mixture of isomers) [Compound 311], the 50% inhibitory concentration (IC50) in assay [1] (Homo sapiens, MOLM-14, 192 h) is above 3.75 µM; in assay [2] (Homo sapiens, MV4-11, 192 h), 2.13 µM; in assay [3], 3.98 µM; in assay [4], 2.62 µM.
Consider `O=c1[nH]c2cc(CNC3CCC4(C3)CN(c3ncnc5sc(CC(F)(F)F)cc35)C4)ccc2o1` (single isomer, unassigned) [Compound 58], for which the IC50 in assay [1] (Homo sapiens, MOLM-14, 192 h) is 0.2 µM; in assay [2] it was 0.03 µM; in assay [4], 0.11 µM.
In the case of `Cn1c(=O)[nH]c2cc(CNC3CCC4(C3)CN(c3ncnc5sc(CC(F)(F)F)cc35)C4)ccc21` (stereo not drawn) [Compound 54], the IC50 in assay [1] (Homo sapiens, MOLM-14, 192 h) worked out at 1.05 µM; in assay [2] (Homo sapiens, MV4-11, 192 h), 0.16 µM; in assay [3], 0.82 µM; in assay [4], 0.26 µM.
In the case of `CNC(=O)c1ccc(NC2CC3(CCN(c4ncnc5sc(CC(F)(F)F)cc45)C3)C2)cc1` (stereo not drawn) [Compound 93], the IC50 came to 0.62 µM in assay [1]; 0.09 µM in assay [2] (Homo sapiens, MV4-11, 192 h); 0.7 µM in assay [3]; 0.16 µM in assay [4].

As usually defined, the IC50 is the concentration at which inhibition is half-maximal.
